The source of these data is PMC11739509, “Transport and inhibition of the sphingosine-1-phosphate exporter SPNS2” (Nature Communications, 2025).

The target in experiment [1] is T1, SPNS2 (Homo sapiens, UniProt Q8IVW8).
T1 sequence (Q8IVW8 1-549): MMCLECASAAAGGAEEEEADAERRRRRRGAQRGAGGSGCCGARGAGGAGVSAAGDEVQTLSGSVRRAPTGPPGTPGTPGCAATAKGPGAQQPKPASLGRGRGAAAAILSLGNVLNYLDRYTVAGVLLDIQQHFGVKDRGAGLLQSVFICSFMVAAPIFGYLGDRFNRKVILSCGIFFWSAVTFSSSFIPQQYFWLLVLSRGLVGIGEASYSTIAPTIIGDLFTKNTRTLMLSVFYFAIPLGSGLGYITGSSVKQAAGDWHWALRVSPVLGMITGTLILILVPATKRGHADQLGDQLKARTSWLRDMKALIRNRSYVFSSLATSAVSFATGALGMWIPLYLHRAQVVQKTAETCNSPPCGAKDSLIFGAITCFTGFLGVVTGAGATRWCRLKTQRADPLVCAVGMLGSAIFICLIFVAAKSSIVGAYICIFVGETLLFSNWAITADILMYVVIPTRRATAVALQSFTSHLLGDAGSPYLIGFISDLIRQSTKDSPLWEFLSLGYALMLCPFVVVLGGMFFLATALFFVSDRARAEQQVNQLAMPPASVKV
Kind of experiment: S1PR3-coupled S1P export assay in CHO cells. It is filed as cell-based. More on the design: untagged wild type SPNS2 overexpressed with SphK1 in CHO-K1 cells.

For experiment [2], the target named is T1, SPNS2. Nature of the experiment: S1PR3-coupled S1P export assay; R200S mutant inactive. It is filed as cell-based. More on the design: untagged wild type SPNS2 overexpressed with SphK1 in CHO-K1 cells.
The target in experiment [3] is T1, SPNS2. Kind of experiment: cryo-EM structure at […] Å (detergent modeled as dodecyl glucoside; mixture of DDM and S1P not excluded). The format is binding. Details: full-length human SPNS2; residues 1-99, 287-296 and 352-358 not resolved; with nanobody NbD12.
The target in experiment [4] is T2, Biotinylated SPNS2 (full-length, codon-optimized, C-terminal AVI and Flag tag) (Homo sapiens, UniProt Q8IVW8, biotin (AVI tag, BirA co-expressed)).
T2 construct: SPNS2, full-length codon-optimized, in the in-house baculovirus vector pD-INS3; The species is not repeated in the paragraph on this construct; also called Biotinylated SPNS2 protein; source: Sf9 cells co-infected with SPNS2 and BirA baculovirus, biotin in the medium; purified in DDM or LMNG (Anti-Flag M2 resin, SEC); not shown: AVI, C-terminal, kept
Kind of experiment: SPR; Biacore 8K; biotinylated SPNS2 immobilised on SA sensor chip (600 to 800 RU); nanobody series 0 to 1 or 10 uM injected; 20 mM HEPES pH 7.5, 150 mM NaCl, 0.026% DDM, 0.01% fatty acid free BSA; 25 °C; 1:1 interaction model. Conditions: both partners purified. On the technique in general: SPR reads the build-up and loss of mass on a sensor chip optically.

For the molecule `CCCCCCCCCCc1ccc2nc(NC[C@H]3CCNC3)oc2c1` [33p, 6-decyl-N-[[(3S)-pyrrolidin-3-yl]methyl]-1,3-benzoxazol-2-amine], the IC50 in experiment [1] was 1900 ± 320 nM.
Regarding `CCCCCCCCCCCCC/C=C/[C@@H](O)[C@@H](N)COP(=O)(O)O` [Sphingosine-1-phosphate], the “S1PR3-coupled S1P export assay; R200S mutant inactive” value in experiment [2] is listed as “Validating this assay, the SPNS2 mutation R200S shows no S1P transport activity”.
In the case of `CCCCCCCCCCCCO[C@@H]1O[C@H](CO)[C@@H](O[C@H]2O[C@H](CO)[C@@H](O)[C@H](O)[C@H]2O)[C@H](O)[C@H]1O` [n-dodecyl-β-D-maltopyranoside], the “cryo-EM structure at 3.7 Å (detergent modeled as dodecyl glucoside); mixture of D” value in experiment [3] is “the unknown density fits the acyl chain and first glucose of n-dodecyl-β-D-maltopyranoside”.

B1: Nanobody D12 (NbD12) (VHH)
VHH: QVQLVESGGGLVQAGGSLRLSCAASGRLLSWYDMAWFRQAPGKEREFVAAVTSTGAGTHYVDSVKGRFTISRVNAKNTMYLQMNSLKPEDTAVYYCAAANTRLTALSLRTTTGSWAYWGKGTPVTVSS
notes: Raised by immunising alpacas with SPNS2 and selected by phage display; Subcloned into pBXNP (Addgene 110098) modified to carry a 1x FLAG tag upstream of the 10x His tag; The FLAG tag is used for capture and detection in the co-IP and the immunofluorescence; source: E. coli MC1061 periplasm, purified
Regarding B1, the Kd in experiment [4] came out at 7.75 nM.

As a reminder, the IC50 is the concentration at which inhibition is half-maximal. A high value points to weaker potency in that assay. What is called Kd is the concentration at which binding is half-saturated. A low value points to higher affinity.
